Measurements taken from patent US9388147B2 (Receptos, Inc., priority 2009, dated 2016).

Each compound was assayed against S1P1/EDG1 (Homo sapiens, UniProt P21453) (assay: S1P1 CRE-bla CHOK1 reporter assay, inhibition of Forskolin induced cAMP). Settings: agonist activity range, S1P1 CRE-bla CHOK1, 2 μM Forskolin; read-out: S1P1 ACTIVITY.
Format: cell-based
Protocol: Generation of S1P1-Mediated Inhibition of cAMP Reporter Assay
A mammalian expression plasmid containing S1P1/EDG1 cloned into pcDNA3.1 was purchased from Missouri S&T cDNA Resource Centre. […] S1P1/pcDNA3.1 was transfected into the CRE-bla CHO K1 (Invitrogen) cell line, and stable single cell clones were selected using standard techniques.
S1P1 CRE-Bla CHOK1 Reporter Assay—Characterization of S1P1 Agonists
Cells were seeded into 384-well black wall/clear bottom plates at 10^4 cells/well/19.5 μl assay media (DMEM-phenol free, 0.5% charcoal/dextran stripped serum, 2 mM glutamine, 0.1 mM NEAA, 1 mM Na-Pyruvate, 25 mM Hepes) and incubated for 18 hrs at 37° C. in 5% CO2. Dose response curves (10-point) were generated in 10 mM Hepes, 0.1% Pluronic F127, in the presence of Forskolin. Cells were treated with 0.5 μl compound in the presence of 2 μM Forskolin for 4 hrs at 37° C. The FRET-based β-lactamase fluorescent substrate (LiveBLAzer™-FRET B/G Loading Kit CC4-AM; Invitrogen) was prepared according to manufacturer's directions, and incubated with cells for 2 hrs at room temperature. […] Data was analyzed by non-linear regression to determine the EC50 for inhibition of Forskolin induced cAMP.

Sequence of S1P1/EDG1 (P21453 whole entry): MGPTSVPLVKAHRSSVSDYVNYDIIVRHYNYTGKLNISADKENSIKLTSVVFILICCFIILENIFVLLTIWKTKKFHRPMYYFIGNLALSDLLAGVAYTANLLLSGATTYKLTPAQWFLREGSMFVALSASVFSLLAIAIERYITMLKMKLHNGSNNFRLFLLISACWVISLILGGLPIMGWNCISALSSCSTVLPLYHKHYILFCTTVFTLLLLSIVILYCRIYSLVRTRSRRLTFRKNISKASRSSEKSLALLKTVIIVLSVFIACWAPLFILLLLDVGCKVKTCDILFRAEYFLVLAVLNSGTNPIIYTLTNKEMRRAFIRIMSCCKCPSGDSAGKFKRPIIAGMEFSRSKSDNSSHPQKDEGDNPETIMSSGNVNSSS

Row | SMILES | EC50 [nM]
1 | CC(C)Oc1ccc(-c2nc(-c3cccc4c3CCC4NC(CO)CO)no2)cc1C#N (racemic) [Compound 17, 5-(3-(1-((1,3-dihydroxypropan-2-yl)amino)-2,3-dihydro-1H-inden-4-yl)-1,2,4-oxadiazol-5-yl)-2-isopropoxybenzonitrile] | 0.05 to 0.5
2 | CC(C)Oc1ccc(-c2nc(-c3cccc4c3CC[C@@H]4NCc3nc4ccccc4[nH]3)no2)cc1C#N [Compound 160] | 0.5 to 5
3 | CC(C)Oc1ccc(-c2nc(-c3cccc4c3CC[C@H]4NCC(=O)N3CCNCC3)no2)cc1C#N [Compound 131] | > 5
4 | CCOC(=O)N[C@@H]1CCc2c(-c3noc(-c4ccc(OC(C)C)c(C#N)c4)n3)cccc21 [Compound 151] | 0.5 to 5
5 | CC(C)Oc1ccc(-c2nc(-c3cccc4c3CC[C@H]4O)no2)cc1C(F)(F)F [Compound 7] | 0.5 to 5
6 | CC(C)Oc1ccc(-c2nc(-c3cccc4c3CC[C@@H]4N3CC(O)C3)no2)cc1C#N [Compound 84, (S)-5-(3-(1-(3-hydroxyazetidin-1-yl)-2,3-dihydro-1H-inden-4-yl)-1,2,4-oxadiazol-5-yl)-2-isopropoxybenzonitrile] | 0.05 to 0.5
7 | N#Cc1cc(-c2nc(-c3cccc4c3CCC4NCCO)no2)ccc1OCC(=O)O (racemic) [Compound 109] | > 5
8 | CC(C)Oc1ccc(-c2nc(-c3cccc4c3CC[C@H]4NC(=O)OCCO)no2)cc1C#N [Compound 227] | 0.05 to 0.5
9 | CC(C)Oc1ccc(-c2nc(-c3cccc4c3CCC4N3CCOCC3)no2)cc1C#N (racemic) [Compound 46] | 0.5 to 5
10 | CC(C)Oc1ccc(-c2nc(-c3cccc4c3CC[C@H]4NC(=O)N3CCC(N(C)C)CC3)no2)cc1C#N [Compound 246] | > 5
11 | CNC(=O)CS(=O)(=O)N[C@@H]1CCc2c(-c3noc(-c4ccc(OC(C)C)c(C#N)c4)n3)cccc21 [Compound 199] | < 0.05
12 | COCC(=O)NC1CCc2c(-c3noc(-c4ccc(OC(C)C)c(C#N)c4)n3)cccc21 (racemic) [Compound 39] | 0.05 to 0.5
13 | CC(C)Oc1ccc(-c2nc(-c3cccc4c3CC[C@@H]4N3CC(C(=O)N4CCC4)C3)no2)cc1C#N [Compound 207] | 0.05 to 0.5
14 | CC(C)Oc1ccc(-c2nc(-c3cccc4c3CCC4N3CCN(CCO)CC3)no2)cc1C#N (racemic) [Compound 24] | 0.05 to 0.5
15 | N#Cc1cccc(-c2nc(-c3cccc4c3CC[C@H]4N)no2)c1 [Compound 92, (R)-3-(3-(1-amino-2,3-dihydro-1H-inden-4-yl)-1,2,4-oxadiazol-5-yl)benzonitrile] | > 5
16 | N#Cc1cc(-c2nc(-c3cccc4c3CCC4NCCO)no2)ccc1O (racemic) [Compound 102, 2-hydroxy-5-(3-(1-((2-hydroxyethyl)amino)-2,3-dihydro-1H-inden-4-yl)-1,2,4-oxadiazol-5-yl)benzonitrile] | > 5
17 | CC(C)Oc1ccc(-c2nc(-c3cccc4c3CC[C@@H]4NS(=O)(=O)CC(=O)N3CCOCC3)no2)cc1C#N [Compound 191] | 0.05 to 0.5
18 | CC(C)Oc1ccc(-c2nc(-c3cccc4c3CC[C@@H]4NC(=O)N3CCC[C@H](O)C3)no2)cc1C#N [Compound 216] | 0.05 to 0.5
19 | CC(C)Oc1ccc(-c2nc(-c3cccc4c3CCC4NCCS(C)(=O)=O)no2)cc1C#N (racemic) [Compound 44] | 0.05 to 0.5
20 | CC(C)Oc1ccc(-c2nc(-c3cccc4c3CC[C@@H]4NS(=O)(=O)CCN(C)C)no2)cc1C#N [Compound 78, (S)-N-(4-(5-(3 cyano-4-isopropoxyphenyl)-1,2,4-oxadiazol-3-yl)-2,3-dihydro-1H-inden-1-yl)-2-(dimethylamino)ethanesulfonamide] | 0.5 to 5
21 | CC(C)Oc1ccc(-c2nc(-c3cccc4c3CC[C@H]4NS(N)(=O)=O)no2)cc1C#N [Compound 248, (R)-N-(4-(5-(3 cyano-4-isopropoxyphenyl)-1,2,4-oxadiazol-3-yl)-2,3-dihydro-1H-inden-1-yl)sulfamide] | < 0.05

Row | SMILES | EC50 [nM]
22 | CC(C)Oc1ccc(-c2nc(-c3cccc4c3CCC4N3CC[C@@H](N)C3)no2)cc1C#N (mixture of isomers) [Compound 31] | > 5
23 | CC(C)Oc1ccc(-c2nc(-c3cccc4c3CCC4NC3CCNCC3)no2)cc1C#N (racemic) [Compound 19, 2-isopropoxy-5-(3-(1-(piperidin-4-ylamino)-2,3-dihydro-1H-inden-4-yl)-1,2,4-oxadiazol-5-yl)benzonitrile] | > 5
24 | CCOc1ccc(-c2nc(-c3cccc4c3CC[C@@H]4O)no2)cc1OCC [Compound 2] | 0.05 to 0.5
25 | CC(C)Oc1ccc(-c2nc(-c3cccc4c3CC[C@H]4NS(=O)(=O)CC(=O)N(C)C)no2)cc1C#N [Compound 194, (R)-2-(N-(4-(5-(3-cyano-4-isopropoxyphenyl)-1,2,4-oxadiazol-3-yl)-2,3-dihydro-1H-inden-1-yl)sulfamoyl)-N,N-dimethylacetamide] | < 0.05
26 | CC(C)Oc1ccc(-c2nc(-c3cccc4c3CC[C@H]4NS(=O)(=O)CCN3CCOCC3)no2)cc1C#N [Compound 176] | 0.5 to 5
27 | CC(C)Oc1ccc(-c2nc(-c3cccc4c3CCC4NS(C)(=O)=O)no2)cc1C#N (stereo in doubt) [Compound 70] | 0.05 to 0.5
28 | CC(C)Oc1ccc(-c2nc(-c3cccc4c3CC[C@H]4NS(=O)(=O)CCN3CCCC3)no2)cc1C#N [Compound 170] | 0.5 to 5
29 | CC(C)Oc1ccc(-c2nc(-c3cccc4c3CC[C@H]4N(C)CC(=O)N(C)C)no2)cc1C#N [Compound 115] | 0.5 to 5
30 | CC(C)Oc1ccc(-c2nc(-c3cccc4c3CC[C@H]4NC(=O)N3CC[C@H](N)C3)no2)cc1C#N [Compound 222] | 0.5 to 5
31 | CC(C)Oc1ccc(-c2nc(-c3cccc4c3CCC4NCCN3CCCC3)no2)cc1C#N (racemic) [Compound 26] | 0.5 to 5
32 | Cc1cc(CN[C@H]2CCc3c(-c4noc(-c5ccc(OC(C)C)c(C#N)c5)n4)cccc32)[nH]n1 [Compound 162] | 0.5 to 5
33 | CC(C)Oc1ccc(-c2nc(-c3cccc4c3CC[C@@H]4NC(=O)N3CC[C@H](N(C)C)C3)no2)cc1C#N [Compound 245] | 0.5 to 5
34 | CC(C)Oc1ccc(-c2nc(-c3cccc4c3CC[C@@H]4N(C)C)no2)cc1C#N [Compound 210] | 0.5 to 5
35 | CC(C)Oc1ccc(-c2nc(-c3cccc4c3CCC4NS(=O)(=O)c3ccc(C(=O)O)cc3)no2)cc1C#N (stereo in doubt) [Compound 80] | > 5
36 | CC(C)Oc1ccc(-c2nc(-c3cccc4c3CC[C@H]4NC(=O)N3CC[C@@H](O)C3)no2)cc1C#N [Compound 230] | 0.05 to 0.5
37 | CC(C)Oc1ccc(-c2nc(-c3cccc4c3CC[C@@H]4N(C)CCO)no2)cc1C#N [Compound 209] | 0.05 to 0.5
38 | CC(C)Oc1ccc(-c2nc(-c3cccc4c3CC[C@@H]4NC(=O)N3CCC(C(=O)O)CC3)no2)cc1C#N [Compound 239] | 0.05 to 0.5
39 | CC(C)Oc1ccc(-c2nc(-c3cccc4c3CC[C@H]4N)no2)cc1S(C)(=O)=O [Compound 252] | 0.5 to 5
40 | CC(C)C(=O)Oc1ccc(-c2nc(-c3cccc4c3CCC4NCCO)no2)cc1C#N (racemic) [Compound 108] | > 5
41 | CC(C)Oc1ccc(-c2nc(-c3cccc4c3CC[C@@H]4NS(=O)(=O)CC(=O)N3CC(O)C3)no2)cc1C#N [Compound 189] | 0.05 to 0.5
42 | N#Cc1cc(OC(F)(F)F)cc(-c2nc(-c3cccc4c3CC[C@H]4N)no2)c1 [Compound 93, (R)-3-(3-(1-amino-2,3-dihydro-1H-inden-4-yl)-1,2,4-oxadiazol-5-yl)-5-(trifluoromethoxy)benzonitrile] | > 5
